Results on 20 compounds are retold here after patent US20080045514A1 (Cytovia, Inc., priority 2006, published 2008).

What all share (type): cell-based
The test system of test [1] is human hepatocellular carcinoma cell line SNU398. The experiment in a line: Caspase cascade activation (EC50), SNU398. Conditions: Homo sapiens, SNU-398, SNU398 cells. How it is done:
(§1) Human breast cancer cell lines T-47D, human hepatocellular carcinoma cell line SNU398, human colon carcinoma cell line HCT116, human cancer cell line H1299, human Burkitt's lymphoma cell line Namalwa, human lymphoma cell line Raji, and human B cell lymphoblastoid cell line Ramos were grown according to media component mixtures designated by American Type Culture Collection+10% FCS (Invitrogen Corporation), in a 5% CO2-95% humidity incubator at 37° C. T-47D and H1299 cells were maintained at a cell density between 50 and 80% confluency at a cell density of 0.1 to 0.6×10^6 cells/mL. Cells were harvested at 600×g and resuspended at 0.65×10^6 cells/mL into appropriate media+10% FCS. An aliquot of 22.5 μL of cells was added to a well of a 384-well microtiter plate containing 2.5 μL of a 10% DMSO in RPMI-1640 media solution containing 0.16 to 100 μM of 3-(2-chlorophenyl)-6-(3,4-methylenedioxyphenyl)-7H-[1,2,4]triazolo[3,4-b][1,3,4]thiadiazine or other test compound (0.016 to 10 μM final). An aliquot of 22.5 μL of cells was added to a well of a 384-well microtiter plate containing 2.5 μL of a 10% DMSO in RPMI-1640 media solution without test compound as the control sample. The samples were mixed by agitation and then incubated at 37° C. for 48 h in a 5% CO2-95% humidity incubator. After incubation, the samples were removed from the incubator and 25 μL of a solution containing 14 μM of N—(Ac-DEVD)-N′-ethoxycarbonyl-R110 (SEQ ID No.:1) fluorogenic substrate (Cytovia, Inc.; WO99/18856), 20% sucrose (Sigma), 20 mM DTT (Sigma), 200 mM NaCl (Sigma), 40 mM Na PIPES buffer pH 7.2 (Sigma), and 500 μg/mL lysolecithin (Calbiochem) was added. The samples were mixed by agitation and incubated at room temperature. Using a fluorescent plate reader (Model SPECTRAfluor Plus, Tecan), an initial reading (T=0) was made approximately 1-2 min after addition of the substrate solution, employing excitation at 485 nm and emission at 530 nm, to determine the background fluorescence of the control sample. After the 3 h incubation, the samples were read for fluorescence as above (T=3 h). Calculation: The Relative Fluorescence Unit values (RFU) were used to calculate the sample readings as follows: RFU(T=3H)−Control RFU(T=0)=Net RFU(T=3h) The activity of caspase cascade activation was determined by the ratio of the net RFU value for 3-(2-chlorophenyl)-6-(3,4-methylenedioxyphenyl)-7H-[1,2,4]triazolo[3,4-b][1,3,4]thiadiazine (Example P) or other test compound to that of control samples. The EC50 (nM) was determined by a sigmoidal dose-response calculation (Prism 3.0, GraphPad Software Inc.).

Test [2] concerns human breast cancer cell line T-47D. The experiment in a line: Caspase cascade activation (EC50), T-47D. Conditions: Homo sapiens, T47D cells. How it is done:
as §1

For test [3], the system named is human colon carcinoma cell line HCT116. The experiment in a line: Caspase cascade activation (EC50), HCT116. The following applies: Homo sapiens, HCT-116, HCT116 cells. How it is done:
as §1

Test [4] relates to human Burkitt's lymphoma cell line Namalwa. The experiment in a line: Caspase cascade activation (EC50), Namalwa. The following applies: Homo sapiens, Burkitts lymphoma cell, Namalwa cells. How it is done:
as §1

The mark [5] stands for this setting: caspase cascade activation, read-out: caspase potency (EC50) SNU398.
[6] abbreviates: caspase cascade activation, read-out: caspase potency (EC50) T47D.
Setting [7] is: caspase cascade activation, read-out: caspase potency (EC50) HCT116.
[8] abbreviates: caspase cascade activation, read-out: caspase potency (EC50) Namalwa.
The mark [9] stands for this setting: read-out: Caspase potency (EC50) SNU398.
[10] abbreviates: read-out: Caspase potency (EC50) T47D.
[11] abbreviates: read-out: Caspase potency (EC50) HCT116.
The mark [12] stands for this setting: read-out: Caspase potency (EC50) Namalwa.

A word on the EC50: it is the concentration giving half of the maximal effect.

Like-named read-outs stand apart in the source and are kept apart here. Some results are limits rather than exact numbers.

Turning to `COc1ccccc1-c1nnc2n1N=C(c1ccc(C(=O)O)cc1)CS2` [Example 89, 6-(4-Carboxyphenyl)-3-(2-Methoxyphenyl)-7H-[1,2,4]triazolo[3,4-b][1,3,4]thiadiazine], the EC50 in test [1] (setting [5]), in test [2] (setting [6]), in test [3] (setting [7]) and in test [4] (setting [8]) was more than 10000 nM throughout.

As to `COc1cc(-c2nnc3n2N=C(c2ccc(N(C)C)cc2)CS3)cc(OC)c1OC` [Example 67, 6-(4-Dimethylaminophenyl)-3-(3,4,5-trimethoxyphenyl)-7H-[1,2,4]triazolo[3,4-b][1,3,4]thiadiazine], the EC50 in test [1] (setting [5]) worked out at 43 nM; in test [2] (setting [6]), 175 nM; in test [3] (setting [7]), 58 nM; in test [4] (setting [8]), 61 nM.

With `COc1ccccc1-c1nnc2n1N=C(c1cc(Br)c(N)c(Br)c1)CS2` [Example 78, 6-(4-Amino-3,5-dibromophenyl)-3-(2-methoxyphenyl)-7H-[1,2,4]triazolo[3,4-b][1,3,4]thiadiazine], the EC50 in test [1] (setting [5]) is 51 nM; in test [2] (setting [6]), 259 nM; in test [3] (setting [7]), 124 nM; in test [4] (setting [8]) it was 73 nM.

Turning to `Cc1ccc(C2=Nn3c(nnc3-c3ccc(Cl)cc3C)SC2)cc1N` [Example 91, 6-(3-Amino-4-methylphenyl)-3-(4-chloro-2-methylphenyl)-7H-[1,2,4]triazolo[3,4-b][1,3,4]thiadiazine], the EC50 in test [1] (setting [5]) was 28 nM; in test [2] (setting [6]), 63 nM; in test [3] (setting [7]) it was 30 nM; in test [4] (setting [8]), 16 nM.

In the case of `Cc1ccc(C2=Nn3c(nnc3-c3cccn3C)SC2)cc1` [Example 94, 3-(1-Methyl-1H-pyrrol-2-yl)-6-(4-methylphenyl)-7H-[1,2,4]triazolo[3,4-b][1,3,4]thiadiazine], the concentration for a half-maximal effect (EC50) amounted to 1440 nM in test [1] (setting [5]), 2630 nM in test [2] (setting [6]), 5510 nM in test [3] (setting [7]) and 1290 nM in test [4] (setting [8]).

`COc1cc(-c2n[nH]c3nc(=O)c(-c4ccc(C)cc4)nn23)cc(OC)c1OC` [Example 37, 3-(3,4,5-Trimethoxyphenyl)-6-(4-methylphenyl)-1H-[1,2,4]triazolo[4,3-b][1,2,4]triazin-7-one]: the 50% effective concentration (EC50) in test [1] (setting [5]) was 5040 nM; in test [2] (setting [6]), 5830 nM; in test [3] (setting [7]), more than 10000 nM; in test [4] (setting [8]), more than 10000 nM.

`COC(=O)c1ccc(C2=Nn3c(nnc3-c3ccccc3OC)SC2)cc1` [Example 85, 6-(4-Methoxycarbonylphenyl)-3-(2-methoxyphenyl)-7H-[1,2,4]triazolo[3,4-b][1,3,4]thiadiazine]: the EC50 in test [1] (setting [5]) turned out to be 253 nM; in test [2] (setting [6]), 274 nM; in test [3] (setting [7]), 298 nM; in test [4] (setting [8]), 209 nM.

For `COc1ccccc1-c1n[nH]c2nc(=O)c(-c3ccc(C)cc3)nn12` [Example 38, 3-(2-Methoxyphenyl)-6-(4-methylphenyl)-1H-[1,2,4]triazolo[4,3-b][1,2,4]triazin-7-one], the concentration for a half-maximal effect (EC50) in test [1] (setting [5]), in test [2] (setting [6]), in test [3] (setting [7]) and in test [4] (setting [8]) was more than 10000 nM throughout.

As for `Cc1ccc(C2=Nn3c(nnc3-c3snnc3C)SC2)cc1` [Example 93, 3-(4-Methyl-1,2,3-thiadiazol-5-yl)-6-(4-methylphenyl)-7H-[1,2,4]triazolo[3,4-b][1,3,4]thiadiazine], the EC50 in test [1] (setting [5]), in test [2] (setting [6]), in test [3] (setting [7]) and in test [4] (setting [8]) was more than 10000 nM each time.

With `COc1cc(C2=Nn3c(nnc3-c3ccccc3OC)SC2)ccc1N` [Example 57, 6-(4-Amino-3-methoxyphenyl)-3-(2-methoxyphenyl)-7H-[1,2,4]triazolo[3,4-b][1,3,4]thiadiazine], the EC50 in test [1] (setting [5]) is 2280 nM; in test [2] (setting [6]) it was 2640 nM; in test [3] (setting [7]) it was 2870 nM; in test [4] (setting [8]), 2330 nM.

For the compound `Cc1ccc(C2=Nn3c(nnc3-c3ccccc3N)SC2)cc1` [Example 74, 3-(2-Aminophenyl)-6-(4-methylphenyl)-7H-[1,2,4]triazolo[3,4-b][1,3,4]thiadiazine], the EC50 in test [1] (setting [5]) was 529 nM; in test [2] (setting [6]), more than 10000 nM; in test [3] (setting [7]) it was 557 nM; in test [4] (setting [8]) it was 507 nM.

As to `COc1ccccc1-c1nnc2n1N=C(c1ccc(N)c(N)c1)CS2` [Example 60, 6-(3,4-Diaminophenyl)-3-(2-methoxyphenyl)-7H-[1,2,4]triazolo[3,4-b][1,3,4]thiadiazine], the EC50 in test [1] (setting [5]), in test [2] (setting [6]), in test [3] (setting [7]) and in test [4] (setting [8]) was more than 10000 nM each time.

Consider `COc1ccccc1-c1nnc2n1N=C(c1cc(I)c(N)c(I)c1)CS2` [Example 79, 6-(4-Amino-3,5-diiodophenyl)-3-(2-methoxyphenyl)-7H-[1,2,4]triazolo[3,4-b][1,3,4]thiadiazine], for which the EC50 in test [1] (setting [5]) was 562 nM; in test [2] (setting [6]), 907 nM; in test [3] (setting [7]), 1250 nM; in test [4] (setting [8]), 304 nM.

On to `COc1ccccc1-c1nnc2n1N=C(c1ccc(C#N)cc1)CS2` [Example 87, 6-(4-Cyanophenyl)-3-(2-methoxyphenyl)-7H-[1,2,4]triazolo[3,4-b][1,3,4]thiadiazine], for which the EC50 worked out at 2550 nM in test [1] (setting [5]), 3330 nM in test [2] (setting [6]), 5090 nM in test [3] (setting [7]) and 2280 nM in test [4] (setting [8]).

Consider `Cc1ccccc1-c1nnc2n1N=C(c1ccc(C)c([N+](=O)[O-])c1)CS2` [Example 53, 6-(4-Methyl-3-nitrophenyl)-3-(2-methylphenyl)-7H-[1,2,4]triazolo[3,4-b][1,3,4]thiadiazine], for which the half-maximal effective concentration (EC50) in test [1] (setting [5]), in test [2] (setting [6]), in test [3] (setting [7]) and in test [4] (setting [8]) was more than 10000 nM in each case.

Consider `COc1ccccc1-c1nnc2n1NC(c1ccc(C)cc1)CS2` (centres unmarked) [Example 88, 5,6-Dihydro-3-(2-methoxyphenyl)-6-(4-methylphenyl)-7H-[1,2,4]triazolo[3,4-b][1,3,4]thiadiazine], for which the EC50 was determined as 2530 nM in test [1] (setting [5]), 5330 nM in test [2] (setting [6]), 2800 nM in test [3] (setting [7]) and 1530 nM in test [4] (setting [8]).

For the compound `Cc1ccc(C2=Nn3c(nnc3-c3ccccc3S(C)(=O)=O)SC2)cc1` [Example 73, 3-(2-Methylsulfonylphenyl)-6-(4-methylphenyl)-7H-[1,2,4]triazolo[3,4-b][1,3,4]thiadiazine], the EC50 in test [1] (setting [5]) was more than 1000 nM; in test [2] (setting [6]) it was more than 10000 nM; in test [3] (setting [7]), more than 10000 nM; in test [4] (setting [8]), more than 10000 nM.

As to `COc1ccccc1-c1nnc2n1N=C(c1ccn(C)c1)CS2` [Example 86, 3-(2-Methoxyphenyl)-6-(1-methyl-1H-pyrrol-3-yl)-7H-[1,2,4]triazolo[3,4-b][1,3,4]thiadiazine], the EC50 is 380 nM in test [1] (setting [5]), 525 nM in test [2] (setting [6]), 1320 nM in test [3] (setting [7]) and 320 nM in test [4] (setting [8]).

As to `COc1ccccc1-c1nnc2n1N=C(c1cc(Br)c3c(c1)CCN3)CS2` [Example 96, 6-(7-Bromoindolin-5-yl)-3-(2-methoxyphenyl)-7H-[1,2,4]triazolo[3,4-b][1,3,4]thiadiazine], the concentration for a half-maximal effect (EC50) is 35 nM in test [1] (setting [9]), 136 nM in test [2] (setting [10]), 79 nM in test [3] (setting [11]) and 31 nM in test [4] (setting [12]).

Regarding `Cc1ccc(C2=Nn3c(nnc3-c3cc([N+](=O)[O-])cn3C)SC2)cc1` [Example 95, 3-(1-Methyl-4-nitro-1H-pyrrol-2-yl)-6-(4-methylphenyl)-7H-[1,2,4]triazolo[3,4-b][1,3,4]thiadiazine], the EC50 in test [1] (setting [9]) is 478 nM; in test [2] (setting [10]) it was 2700 nM; in test [3] (setting [11]), 693 nM; in test [4] (setting [12]) it was 328 nM.
